This is an account of results in patent US10568992B2, “Peptides for supporting endothelial progenitor cell rolling and capture and endothelialization of biomaterials” (Auburn University, priority 2015, dated 2020).

Experiment [1] relates to endothelial colony forming cells (ECFCs). As to the kind of experiment: ECFC rolling on peptide-grafted PEG hydrogels under shear (parallel plate flow chamber). Further details: ECFC rolling velocity: unit not given here. The format is cell-based. The settings on record: for support of ECFC rolling (velocity below rolling cutoff, 40% of average fluid velocity): shear rates 20-120 s^−1; for ECFC rolling velocity: 0.7 μmol/mL PEG-peptide grafted hydrogel; for ECFC rolling velocity / ECFC rolling velocities / rolling velocities of ECFCs: mean±SD (n=3); for ECFC rolling velocities: FIG. 15A; for rolling velocities of ECFCs: FIG. 13A. How it is done:
(§1) Umbilical cord blood ECFCs were used in this study. To create the peptide-grafted PEG surfaces, PEG-DA was first photopolymerized to form a hydrogel base. Peptides were conjugated to acryloyl-PEG-SVA to produced the PEG-peptides, and 0.7 μmol/mL of each PEG-peptide was grafted onto the surface of the PEG hydrogel base. Shear experiments were performed to examine ECFC rolling and adhesion on the hydrogel surfaces. Using a Glycotech parallel plate flow chamber, the ECFC cell suspension was sheared over the hydrogels at shear rates of 20 s^−1, 40 s^−1, 80 s^−1, and 120 s^−1. Cell rolling events were recorded at 70 fps using a high speed camera. Cell tracking was performed using ImageJ and Matlab to determine rolling velocities. Finally ECFC retention on the RGDSQ ID NO:3)-grafted PEG hydrogels was quantified under superphysiological shear stress.
To form the PEG-peptide grafting solution, the acryloyl-PEG-peptide was first dissolved in sterile PBS at the desired concentration (ranging from 0.7 mM to 5.6 mM) and the photoinitiator was added as described above. After each PEGDA hydrogel was photocrosslinked, the top plate of the mold was removed. The hydrogels were rinsed with sterile PBS and briefly dried with a stream of nitrogen to remove excess PBS on the surface of the hydrogel. The mold's 0.5 mm PDMS spacers were replaced with 0.7 mm PDMS spacers and a clean glass slide was placed on top. Then the PEG-peptide grafting solution was injected between the hydrogel and the new piece of glass and photocrosslinked to the top of the PEGDA hydrogel under the UV lamp for 7 min. PEG-peptide grafted hydrogels were then rinsed and swollen in sterile PBS for experiments.
To identify whether a cell is rolling, the upper velocity cutoff was determined by flowing ECFCs across the surface of control PEG hydrogels at different shear rates. Using video recordings, ECFC rotation on the focal plane of PEG hydrogels was observed. […] Therefore, based on these experiments, 40% of average fluid flow velocity was used as the cutoff velocity for cell rolling as is shown in FIG. 12.

Experiment [2] has the same test system. Kind of experiment: Adhesion of ECFCs on peptide-grafted PEG hydrogels (static). The settings on record: for ECFC adhesion and spreading: after 24 hours; for ECFC monolayer formation and cobble stone morphology: peptide-grafted hydrogels. Type of experiment: cell-based. From the text:
ECFC adhesion on (A) CRRETAWAC (SEQ ID NO:1)-(B) PRb ([…]), —(C) P11 (SEQ ID NO: 11)-grafted PEG hydrogels.
Adhesion of ECFCs on CRRETAWAC (SEQ ID NO:1)-, PRb (SEQ ID NO:18)-, P11 (SEQ ID NO: 11)-grafted hydrogels was first accessed. […] On P11-grafted hydrogels, ECFCs aggregated to form adherent cell clumps. […] Without the ability to support cell spreading and the formation of monolayer, P11 alone could not support ECFC endothelialization which is critical for healing damaged and diseased blood vessels.

Experiment [3] shares this test system. As to the kind of experiment: ECFC capture on peptide-grafted PEG hydrogels under shear. Type of experiment: cell-based. The settings on record: 20 s^−1; for ECFCs captured (captured cells normalized to total cells interacting with hydrogel surface): 2 min recordings, total 0.7 μmol/mL peptide grafted (combinations 0.35/0.35 μmol/mL), mean±SD (n=3); for ECFC capture events (in words): low shear rate. The protocol: as §1
Cell capture events were consistently observed on CRRETAWAC (SEQ ID NO:1)- and PRb (SEQ ID NO:18)-grafted hydrogels at 20 s^−1. Number of captured cells were counted and normalized to the total number of cells interacted with each hydrogel surface. During each of the 2 min recordings, 3.74%±1.0% of ECFCs were captured on CRRETAWAC (SEQ ID NO:1)-grafted hydrogels and 1.14%±0.2% of ECFCs were captured on PRb-grafted hydrogels FIG. 9. Since both of these novel peptides are specific for the integrin α5β1, the result of this study strongly supports that α5β1 is responsible for cell capture.
To further evaluate the potential use of CRRETAWAC (SEQ ID NO:1) and PRb in the ECFC capture for endothelialization, ECFC rolling on hydrogels that were grafted with combinations of CRRETAWAC (SEQ ID NO:1) or PRb (SEQ ID NO:18) with REDV (SEQ ID NO:2) was assessed. In order to maintain consistent grafting of peptides, a final concentrations of 0.7 μmol/mL of equal molar mixtures of acryloyl-PEG-peptides precursors were grafted onto the surface of PEG hydrogels.

The next experiment has as its target integrin α5β1 (Homo sapiens, UniProt P05556+P08648). The settings on record: among the non-RGD containing peptides of the library; cited from earlier work.
The target in the next experiment is αvβ3 integrin (Homo sapiens, UniProt P05106+P06756). The settings on record: among 12 HXXXHK hexapeptides; cited from earlier work.

Bridges are numbered along the chain shown (N, C = ends). Where no end group is shown, it is not given here.

Sequence of αvβ3 integrin (P06756 31-889 limits assumed): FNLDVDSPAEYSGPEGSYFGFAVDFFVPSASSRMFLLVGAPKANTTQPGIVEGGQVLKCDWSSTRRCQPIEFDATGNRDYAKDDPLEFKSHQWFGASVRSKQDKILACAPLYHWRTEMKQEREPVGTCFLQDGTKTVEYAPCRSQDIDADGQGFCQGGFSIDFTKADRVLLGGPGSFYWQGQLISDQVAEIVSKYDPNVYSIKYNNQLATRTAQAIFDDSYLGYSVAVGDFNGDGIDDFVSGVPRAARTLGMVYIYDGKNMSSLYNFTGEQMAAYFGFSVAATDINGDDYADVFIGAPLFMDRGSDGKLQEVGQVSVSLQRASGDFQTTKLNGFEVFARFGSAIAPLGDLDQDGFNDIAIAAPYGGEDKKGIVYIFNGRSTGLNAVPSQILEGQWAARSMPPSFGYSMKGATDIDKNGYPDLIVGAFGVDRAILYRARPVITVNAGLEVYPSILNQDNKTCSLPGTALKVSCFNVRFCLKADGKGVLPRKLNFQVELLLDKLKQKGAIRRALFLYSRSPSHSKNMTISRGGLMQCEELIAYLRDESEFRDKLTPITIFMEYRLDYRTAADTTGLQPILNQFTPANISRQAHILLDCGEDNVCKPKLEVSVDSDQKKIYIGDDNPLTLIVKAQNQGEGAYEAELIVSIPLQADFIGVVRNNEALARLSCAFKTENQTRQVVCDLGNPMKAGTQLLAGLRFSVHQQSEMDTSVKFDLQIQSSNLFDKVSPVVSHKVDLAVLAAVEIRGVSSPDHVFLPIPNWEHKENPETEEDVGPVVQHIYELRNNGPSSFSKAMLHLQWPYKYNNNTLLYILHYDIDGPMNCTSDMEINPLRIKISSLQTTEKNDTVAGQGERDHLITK
Sequence of αvβ3 integrin (P06756 891-1048 partner limits assumed): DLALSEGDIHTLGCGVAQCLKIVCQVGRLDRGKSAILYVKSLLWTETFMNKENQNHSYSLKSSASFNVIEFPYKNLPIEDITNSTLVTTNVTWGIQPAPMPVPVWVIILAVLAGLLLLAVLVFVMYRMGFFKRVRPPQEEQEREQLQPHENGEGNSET
Sequence of αvβ3 integrin (P05106 27-788): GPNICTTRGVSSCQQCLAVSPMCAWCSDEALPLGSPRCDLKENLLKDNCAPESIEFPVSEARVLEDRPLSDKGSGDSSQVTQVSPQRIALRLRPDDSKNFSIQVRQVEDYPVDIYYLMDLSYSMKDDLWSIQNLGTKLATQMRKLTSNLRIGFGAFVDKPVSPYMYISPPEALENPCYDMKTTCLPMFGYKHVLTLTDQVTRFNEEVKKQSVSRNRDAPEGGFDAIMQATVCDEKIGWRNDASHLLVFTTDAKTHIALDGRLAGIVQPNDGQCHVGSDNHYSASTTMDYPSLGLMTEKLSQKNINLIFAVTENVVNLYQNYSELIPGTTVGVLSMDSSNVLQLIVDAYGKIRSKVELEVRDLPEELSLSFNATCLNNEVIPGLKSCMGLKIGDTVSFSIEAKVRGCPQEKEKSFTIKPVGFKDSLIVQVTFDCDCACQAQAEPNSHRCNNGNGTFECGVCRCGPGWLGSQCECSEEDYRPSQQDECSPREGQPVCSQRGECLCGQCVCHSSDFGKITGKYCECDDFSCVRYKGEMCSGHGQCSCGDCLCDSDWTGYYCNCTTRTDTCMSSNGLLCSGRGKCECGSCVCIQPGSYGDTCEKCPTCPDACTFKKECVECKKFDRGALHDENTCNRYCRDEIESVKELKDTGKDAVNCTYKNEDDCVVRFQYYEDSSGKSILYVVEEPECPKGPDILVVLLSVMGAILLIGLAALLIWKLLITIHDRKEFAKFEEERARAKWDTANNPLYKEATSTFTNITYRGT
Sequence of integrin α5β1 (P08648 42-894 limits assumed): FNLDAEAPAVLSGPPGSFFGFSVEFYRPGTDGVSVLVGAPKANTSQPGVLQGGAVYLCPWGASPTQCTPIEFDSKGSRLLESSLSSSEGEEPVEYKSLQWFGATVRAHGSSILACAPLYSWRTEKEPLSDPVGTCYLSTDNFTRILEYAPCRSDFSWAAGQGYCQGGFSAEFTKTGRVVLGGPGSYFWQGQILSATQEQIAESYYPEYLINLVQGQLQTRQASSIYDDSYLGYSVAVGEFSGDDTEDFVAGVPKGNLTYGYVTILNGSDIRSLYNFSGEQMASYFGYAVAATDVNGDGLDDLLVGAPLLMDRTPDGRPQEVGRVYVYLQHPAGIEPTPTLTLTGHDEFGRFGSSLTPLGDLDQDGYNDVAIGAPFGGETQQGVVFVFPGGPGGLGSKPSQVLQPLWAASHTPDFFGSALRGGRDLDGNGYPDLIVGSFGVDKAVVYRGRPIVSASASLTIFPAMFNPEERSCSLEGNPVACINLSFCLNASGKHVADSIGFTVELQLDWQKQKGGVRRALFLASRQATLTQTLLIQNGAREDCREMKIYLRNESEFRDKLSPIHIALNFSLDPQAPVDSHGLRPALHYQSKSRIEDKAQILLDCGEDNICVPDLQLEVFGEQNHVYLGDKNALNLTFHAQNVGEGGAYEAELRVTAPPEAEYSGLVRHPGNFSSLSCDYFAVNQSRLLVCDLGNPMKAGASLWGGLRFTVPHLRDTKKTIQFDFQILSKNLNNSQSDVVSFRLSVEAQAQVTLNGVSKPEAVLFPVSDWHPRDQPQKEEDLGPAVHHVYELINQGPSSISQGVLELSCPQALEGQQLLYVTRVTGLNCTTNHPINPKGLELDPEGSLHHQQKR
Sequence of integrin α5β1 (P08648 895-1049 partner limits assumed): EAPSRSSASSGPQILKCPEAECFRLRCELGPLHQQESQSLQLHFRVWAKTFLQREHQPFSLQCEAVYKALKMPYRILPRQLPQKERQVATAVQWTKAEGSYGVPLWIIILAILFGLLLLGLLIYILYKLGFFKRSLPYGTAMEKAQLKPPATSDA
Sequence of integrin α5β1 (P05556 21-798): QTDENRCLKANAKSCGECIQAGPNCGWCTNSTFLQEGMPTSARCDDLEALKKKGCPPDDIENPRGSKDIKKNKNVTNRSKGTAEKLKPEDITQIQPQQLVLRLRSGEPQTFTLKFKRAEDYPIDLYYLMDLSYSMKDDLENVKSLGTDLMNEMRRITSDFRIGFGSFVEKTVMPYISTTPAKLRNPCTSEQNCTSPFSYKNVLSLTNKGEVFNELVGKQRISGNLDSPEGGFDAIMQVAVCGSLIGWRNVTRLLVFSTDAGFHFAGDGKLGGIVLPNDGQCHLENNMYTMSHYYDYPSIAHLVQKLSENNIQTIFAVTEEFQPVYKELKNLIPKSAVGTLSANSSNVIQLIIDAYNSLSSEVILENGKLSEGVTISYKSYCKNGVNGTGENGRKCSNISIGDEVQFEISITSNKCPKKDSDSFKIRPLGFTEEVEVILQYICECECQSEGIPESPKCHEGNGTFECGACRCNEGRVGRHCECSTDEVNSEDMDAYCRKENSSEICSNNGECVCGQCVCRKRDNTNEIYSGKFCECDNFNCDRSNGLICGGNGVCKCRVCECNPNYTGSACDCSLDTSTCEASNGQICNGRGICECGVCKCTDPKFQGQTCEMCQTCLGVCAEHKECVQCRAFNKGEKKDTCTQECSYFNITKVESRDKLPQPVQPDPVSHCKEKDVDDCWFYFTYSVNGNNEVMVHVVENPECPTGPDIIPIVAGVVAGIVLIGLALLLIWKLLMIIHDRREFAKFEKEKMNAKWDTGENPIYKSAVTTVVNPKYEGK

Turning to RGES (also: PEG conjugate), the “support of ECFC rolling (velocity below rolling cutoff, 40% of average fluid velocity)” value in experiment [1] is listed as “did not support ECFC rolling”.
As for PHSRNSGSGSGSGSGRGDSG [PRb], the ECFC rolling velocity in experiment [1] (shear rate 20 1/s) was found to be 110.3; in experiment [1] (shear rate 40 1/s), 235.0 ± 36.1; in experiment [1] (shear rate 80 1/s), 485.7 ± 67.5; in experiment [1] (shear rate 120 1/s), 735.1 ± 102.6. Besides, the “ECFC adhesion and spreading” value in experiment [2] is “supported ECFC adhesion and spreading”. In addition, in experiment [2], the “ECFC monolayer formation and cobble stone morphology” value is “able to form monolayer and maintain cobble stone morphology”. Besides, in experiment [3], the “ECFCs captured (captured cells normalized to total cells interacting with hydrogel surface)” value was found to be 1.14%.
Turning to “CRRETAWAC (disulfide 1-9 (inferred); also: grafted on PEG hydrogel via acryloyl-PEG)”, the ECFC rolling velocity in experiment [1] (shear rate 20 1/s) came to 131.6; in experiment [1] (shear rate 40 1/s), 278.4 ± 28.6; in experiment [1] (shear rate 80 1/s), 550.6 ± 64.1; in experiment [1] (shear rate 120 1/s), 828.4 ± 82.7. Also, the “ECFC adhesion and spreading” value in experiment [2] was “supported ECFC adhesion and spreading”. In addition, the “ECFC monolayer formation and cobble stone morphology” value in experiment [2] was “able to form monolayer and maintain cobble stone morphology”. Further, the “affinity to α5β1” value with integrin α5β1 is recorded as “highest affinity”. For the same substance, the “ECFCs captured (captured cells normalized to total cells interacting with hydrogel surface)” value in experiment [3] worked out at 3.74%.
Regarding YIGSRG (also: PEG conjugate), the ECFC rolling velocities in experiment [1] (20 s^−1) is reported as 102±9 μm s^−1; in experiment [1] (40 s^−1), 223±22 μm s^−1; in experiment [1] (80 s^−1), 484±12 μm s^−1; in experiment [1] (120 s^−1) it was 740±10 μm s^−1. Besides, the ECFC rolling velocity came to 103.2 in experiment [1] (shear rate 20 1/s), 223.2 ± 38.0 in experiment [1] (shear rate 40 1/s), 487.6 ± 72.5 in experiment [1] (shear rate 80 1/s) and 737.0 ± 107.9 in experiment [1] (shear rate 120 1/s). The “support of ECFC rolling (velocity below rolling cutoff, 40% of average fluid velocity)” value in experiment [1] is on record as “supported ECFC rolling”. The “ECFC monolayer formation and cobble stone morphology” value in experiment [2] is recorded as “not”.
As for “RGDS (also: PEG conjugate) [ubiquitous cell adhesion peptide]”, the “rolling velocities of ECFCs” value in experiment [1] (20 s^−1) is 103±3 μm/s; in experiment [1] (40 s^−1) it was 223±14 μm/s; in experiment [1] (80 s^−1) it was 469±38 μm/s; in experiment [1] (120 s^−1) it was 741±28 μm/s. Further, the ECFC rolling velocity came out at 102.2 in experiment [1] (shear rate 20 1/s), 218.7 ± 42.4 in experiment [1] (shear rate 40 1/s), 455.8 ± 86.7 in experiment [1] (shear rate 80 1/s) and 739.7 ± 121.9 in experiment [1] (shear rate 120 1/s). The “support of ECFC rolling (velocity below rolling cutoff, 40% of average fluid velocity)” value in experiment [1] is recorded as “supported ECFC rolling at all shear rates”. Further, the “ECFC monolayer formation and cobble stone morphology” value in experiment [2] is “able to form monolayer and maintain cobble stone morphology”. Also, in experiment [3], the “ECFC capture events (in words)” value is listed as “Some ECFC capture events were observed”.
Regarding “HSDVHK [Peptide P11, synthesized as HSDVHKG]”, the ECFC rolling velocity in experiment [1] (shear rate 20 1/s) was 127.5; in experiment [1] (shear rate 40 1/s) it was 251.0 ± 41.2; in experiment [1] (shear rate 80 1/s), 508.0 ± 86.5; in experiment [1] (shear rate 120 1/s) it was 787.6 ± 102.1. Further, in experiment [2], the “ECFC adhesion and spreading” value is “only able to support ECFC adhesion, but not spreading”. For the same substance, the “ECFC monolayer formation and cobble stone morphology” value in experiment [2] was “not”. Further, the “competition with fluorescently labeled VN for αvβ3” value in the experiment with αvβ3 integrin is “most competitive for αvβ3”.
For the substance REDV (also: PEG conjugate), the ECFC rolling velocities turned out to be 79±4 μm s^−1 in experiment [1] (20 s^−1), 181±6 μm s^−1 in experiment [1] (40 s^−1), 357±6 μm s^−1 in experiment [1] (80 s^−1) and 560±15 μm s^−1 in experiment [1] (120 s^−1). Moreover, the ECFC rolling velocity worked out at 78.6 in experiment [1] (shear rate 20 1/s), 183.3 ± 43.4 in experiment [1] (shear rate 40 1/s), 353.8 ± 82.0 in experiment [1] (shear rate 80 1/s) and 564.3 ± 177.0 in experiment [1] (shear rate 120 1/s). For the same substance, the “support of ECFC rolling (velocity below rolling cutoff, 40% of average fluid velocity)” value in experiment [1] is “supported ECFC rolling”. Moreover, in experiment [2], the “ECFC monolayer formation and cobble stone morphology” value is reported as “not”. In addition, in experiment [3], the “ECFC capture events (in words)” value is on record as “does not support capture even at low shear rates”.
